Measured values from ChEMBL document CHEMBL4251550, “Applications of parallel synthetic lead hopping and pharmacophore-based virtual screening in the discovery of efficient glycine receptor potentiators” (Eur J Med Chem, 2017).
In brackets after ≈: the same amount, converted by molar mass.

What was measured:
[1] = Apparent permeability in MDCK cells; format: ADME, cell-based, Canis lupus familiaris; details: dog
[2] = Solubility of compound in FaSSIF; format: physicochemical
[3] = Volume of distribution at steady state in CD1 mouse at 1 mg/kg, iv; format: ADME, organism-based; details: in vivo, read-out: Vdss

SMILES | Papp [1] | solubility [2] | Vd [3]
CN1C(=O)[C@@H]2CN(S(=O)(=O)c3ccc4c(c3)OCO4)C[C@@H]2c2ccccc21 | 44 ×10⁻⁶ cm/s | < 1 µM | –
COc1ccc(Cl)cc1OC1CN(S(=O)(=O)c2ccc3[nH]c(=O)oc3c2)C1 | 39 ×10⁻⁶ cm/s | 96 µM (≈ 39.4 µg/mL) | 1.4 L/kg
COc1ccccc1OC1CN(S(=O)(=O)c2ccc3c(c2)OCO3)C1 | 44 ×10⁻⁶ cm/s | 102 µM (≈ 37.1 µg/mL) | –
O=S(=O)(c1ccc2c(c1)OCO2)N1CC[C@@H](c2ccccc2F)C1 | 28 ×10⁻⁶ cm/s | 17 µM (≈ 5.94 µg/mL) | –
